# “Also recorded” adds a separate entry of the source. Read-outs that look alike come from different tables or passages of the source.
# Legend:
# [1] = In vitro release from rings of varying core length and apparent/standard k value (Crank's equation); format: physicochemical; design: Standard k: unit not given here; settings: for apparent k value versus core length: Table 3 rings; for apparent k value versus core length / k: 1% (w/v) BKC; for Mean Daily Release / Standard k: Table 4; for Mean Daily Release / Mean Daily Release (as precursor): n = 5; for k (standard k) / k (using core of 141 mm length): Table 5; for k: in µg/day/mm; for Mean Daily Release (as precursor): 250 ml 1% (w/v) BKC
# Source text: Precursor release from a cylindrical device of core design, which comprises a polymer matrix in the form of a core incorporating 17β-oestradiol precursor and a sheath surrounding the core, can be described by Crank's equation: [formula] in which R=precursor release rate (μg/day)
# Crank's equation relates the precursor release rate (R), in sink conditions, to the solubility (C2 S) and diffusibility (D) of the precursor in the polymer matrix, its partition characteristics (π) between the polymer matrix and the dissolution medium; and the ring dimensions (l, b, a). For any given precursor in any given polymer matrix, CS, D and π will be constant and can be grouped together to form the composite constant, k:
# The k value can be empirically derived using Crank's equation in the following manner: [formula]
# The k value is dependent on core length for certain of the 17β-oestradiol precursors (see Example 6 hereinafter). Accordingly, the k value at a core length of 35 mm has been denoted "standard k" value hereinafter.
# Intravaginal drug delivery devices in the form of rings were prepared, each with a ring geometry as described in Table 3, by following the General Method of Manufacture set out hereinabove.
# The dissolution medium was changed daily, following the protocol set out hereinabove. Mean daily release rates from the second week of dissolution experiments were used to determine the apparent k values presented in Table 3.
# It was, therefore, decided to determine k values at a core length of 35 mm and such k values are hereinafter referred to as "standard k" values.
# The standard k value was determined from the mean daily release rates observed in Example 6. The dissolution medium of 1.0% (w/v) of an aqueous solution of benzalkonium chloride was used in respect of the various 17β-oestradiol precursors, so as to ensure sink conditions.
# [2] = In vitro dissolution: mean daily release from full-length-core rings over up to 90 days in three media; format: physicochemical; design: key to Mean Daily Release: **: Not detected; settings: 9 × 54 mm ring, core 141 × 2 mm, 37 °C, N = 4
# Source text: In all cases the ring geometries comprise a ring of dimensions 9 mm (cross-sectional diameter)×54 mm (outer diameter) and containing a full length core (141 mm) of cross-sectional diameter 2 mm. […] The saline and benzalkonium chloride-containing media were chosen to ensure `sink conditions` in at least one medium for each intravaginal ring. It will be recognised by those skilled in the art that the term `sink conditions` refers to that set of experimental conditions in vitro which effectively simulates the active haemoperfusion that occurs in vivo, and which results in a maximum drug concentration gradient and maximum drug diffusion rate, at any given time, across the aqueous boundary layer. Thus, an in vitro dissolution experiment can be designed such that the solution solubility of the released drug in the dissolution medium is much greater than its bulk concentration in this medium at any given time, for example, by micellar drug solubilisation due to incorporation of a surfactant such as benzalkonium chloride (BKC), at a concentration above its critical micelle concentration. Thus, each ring was suspended by a thread in an individual closed flask containing the dissolution medium, maintained at a constant temperature of 37° C. The contents of the flask were gently agitated in order to prevent the occurrence of a hydrostatic layer on the surface of the ring. After 24 hours, the ring was removed and suspended in a flask of fresh dissolution medium of identical volume by a method identical to that previously described.
# [3] = physchem; settings: distilled water
# [4] = Silicone solubility at 37 °C in Dow Corning 360 medical fluid; format: physicochemical; settings: organic solvent or mixture
# Method: Silicone solubility was determined at 37° C. in Dow Corning (Trade Mark) 360 medical fluid.
# [5] = shell ring, 58 mm × 9.5 mm; cited from earlier work
# [6] = Aqueous solubility in distilled water at 20 °C; settings: for requisite aqueous solubility (not less than 1 μg per 100 ml): 20 °C
# [7] = compiled from Novel Drug Delivery Systems (Chien); cited from earlier work
# [8] = In vitro plasma hydrolysis (stability in human blood at 37 °C)
# [9] = Nominal in vitro daily release from intravaginal rings under sink conditions (1% w/v benzalkonium chloride, 37 °C); format: physicochemical; settings: "100 μg" ring, core 2×141 mm
# Method: The nominal in vitro release rates set out in Table 1 for the rings of Examples 1-5 were determined under sink conditions of 1% (w/v) benzalkonium chloride. These release rates were determined in the following manner.
# Each ring (n=4) was suspended in the dissolution medium in an individual flask which is then capped, placed in a suitable oven at 37° C. and shaken. The dissolution medium was changed every 24 hours (±30 minutes). An aliquot of the used dissolution medium was analysed by high performance liquid chromatography (HPLC) using reverse phase packing and UV detection (at 235 nm for 17β-oestradiol-3-acetate and for
# . The sensitivity of the original and improved analytical methods is 5 μg/100 ml.
# [10] = shell ring; cited from earlier work
# [11] = non-oral preparations, read-out: plasma levels of 17β-oestradiol, cited from earlier work
# [12] = 17β-oestradiol ring; EP 0 253 109 0.5 to 25 μg per day; Smith et al 5 to 10 μg per day; cited from earlier work
# [13] = cited from earlier work
# [14] = 1.0% (w/v) BKC, core length 35 mm
# [15] = core length 35 mm, 1.0% (w/v) BKC
Compound,"Mean Daily Release [1, 14]","Standard k [1, 15]",k (standard k) ([1]; core length 35 mm),k ([1]; core length 35 mm),Mean Daily Release (as precursor) ([1]; core length 35 mm),k ([1]; core length 70 mm),Mean Daily Release (as precursor) ([1]; core length 70 mm),k ([1]; core length 140 mm),Mean Daily Release (as precursor) ([1]; core length 140 mm),Mean Daily Release ([2]; 0.133% (w/v) BKC),Mean Daily Release ([2]; 0.9% (w/v) saline),Mean Daily Release ([2]; 1.0% (w/v) BKC),k (using core of 141 mm length) [1],other results
CCC(=O)O[C@H]1CC[C@H]2[C@@H]3CCc4cc(O)ccc4[C@H]3CC[C@]12C,42.86 µg/day,1.842,1.842 μg/day/mm,1.842,42.86 µg/day,1.795,83.54 µg/day,1.667,155.20 µg/day,112 μg per day,26 μg per day,218 μg per day,–,apparent k value versus core length [1]: varies with core length; k ([1]; core length 17 mm): 2.130; Mean Daily Release (as precursor) ([1]; core length 17 mm): 24.08 µg/day; solubility [3]: 0.05 µg/mL
CCC(=O)Oc1ccc2c(c1)CC[C@@H]1[C@@H]2CC[C@]2(C)[C@@H](O)CC[C@@H]12,300.00 µg/day,12.89,12.89 μg/day/mm,12.89,300.00 µg/day,12.89,600.00 µg/day,12.89,1200.00 µg/day,–,–,1200 μg per day,–,"Mean Daily Release ([1]; 0.9% (w/v) saline, core length 35 mm): 250 to 350 µg/day; solubility [4]: 300 µg/mL; solubility [3]: 2.3 µg/mL"
C#C[C@]1(O)CC[C@H]2[C@@H]3CCC4=CC(=O)CC[C@@H]4[C@H]3CC[C@@]21CC [levonorgestrel],–,–,–,–,–,–,–,–,–,–,–,–,–,daily release [5]: 290 μg per day
C[C@]12CC[C@@H]3c4ccc(OC(=O)c5ccccc5)cc4CC[C@H]3[C@@H]1CC[C@@H]2O [reference compound],–,–,–,–,–,–,–,–,–,42 μg per day,< 5 μg per day,66 μg per day,0.70 μg/day/mm,requisite aqueous solubility (not less than 1 μg per 100 ml) [6]: not possessing the requisite aqueous solubility; Silicone solubility [7]: 3.68 mg/100 ml
CC(=O)O[C@H]1CC[C@H]2[C@@H]3CCc4cc(O)ccc4[C@H]3CC[C@]12C,19.50 µg/day,0.838,0.838 μg/day/mm,0.8380,19.50 µg/day,0.8797,40.94 µg/day,0.9395,87.45 µg/day,–,24 μg per day,96 μg per day,–,"apparent k value versus core length [1]: varies with core length; solubility ([4]; Dow Corning 360 medical fluid, 37 °C, read-out: Silicone solubility): 17 µg/mL; solubility ([6]; water): 0.12 µg/mL; half-life [8]: 4 h; nominal in vitro daily release rate [9]: 100 µg"
C[C@]12CC[C@@H]3c4ccc(O)cc4CC[C@H]3[C@@H]1CC[C@@H]2O [17β-oestradiol],–,–,–,–,–,–,–,–,–,–,8 μg per day,–,0.09 μg/day/mm,"daily release [5]: 180 μg per day; in vitro release rate of 17β-oestradiol [10]: 200 μg per day; concentration ([11]; transdermal 50 μg per day (low dose)): ~0.2 nM; concentration ([11]; transdermal 100 μg per day (high dose)): ~0.36 nM; alleviation of symptoms of hypo-oestrogenism (in words) [12]: symptoms in the human female arising from a hypo-oestrogenic condition can be alleviated; also recorded: effective at alleviating those symptoms associated with hypo-oestrogenism that relate specifically to atrophy of vaginal and urethral epithelium; initial serum 17β-oestradiol level ([13]; homogeneous ring 400 mg, within one hour, 60 min): about 700 pg/ml; mean serum 17β-oestradiol ([13]; shell ring (100, 200 or 400 mg), one hour after insertion, 60 min): 300 pg/mL; mean serum 17β-oestradiol (in words) ([13]; shell ring, baseline 24 pg/ml): approached the baseline level of 24 pg/ml within 24 hours; also recorded: falling back to the baseline at 2 and 3 months"
"CCCCC(=O)O[C@H]1CC[C@H]2[C@@H]3CCc4cc(O)ccc4[C@H]3CC[C@]12C [17β-oestradiol-17-valerate, reference compound]",–,–,–,–,–,–,–,–,–,365 μg per day,**,550 μg per day,5.86 μg/day/mm,requisite aqueous solubility (not less than 1 μg per 100 ml) [6]: too low; also recorded: not possessing the requisite aqueous solubility; Silicone solubility [7]: 15.02 mg/100 ml
